Results reported in ChEMBL document CHEMBL4610128, “Structural and Mechanistic Basis of the Inhibitory Potency of Selected 2-Aminothiazole Compounds on Protein Kinase CK2” (J Med Chem, 2020).

Key:
[1] = target: Casein kinase II alpha'/ beta (Homo sapiens) (UniProt P67870+P19784); assay: Ratio of Ki for ATP uncompetitive inhibition to Ki for ATP competitive inhibition of recombinant human CK2alpha2 (1 to 335 residues)/CK2beta2 (1 to 193 residues) expressed in Escherichia coli BL21(DE3)
[2] = target: Casein kinase II alpha/beta (Homo sapiens, UniProt P68400); assay: ATP competitive inhibition of recombinant human CK2alpha2 (1 to 335 residues)/CK2beta2 (1 to 193 residues) expressed in Escherichia coli BL21(DE3) using RRRDDDSDDD as substrate preincubated for 10 mins followed by substrate addition and measured after 5 mins in presence of varying level of [gamma-32P]ATP by Dixon-plot analysis

Row | Compound | Ratio Ki [1] | Ki [2] [nM]
1 | O=C(O)c1ccc(Nc2nc(-c3ccc(Cl)cc3)cs2)cc1O | 16.3 | 206
2 | O=C(O)c1cccc(Nc2nc(-c3ccccn3)cs2)c1 | 36.5 | 1470
